Consider six molecules from patent publication US20240287045A1, “CRYSTAL FORM OF PYRIMIDINE DERIVATIVE AND PREPARATION METHOD THEREFOR” (ZHEJIANG HISUN PHARMACEUTICAL CO., LTD., priority 2021, published 2024).

Some results are limits rather than exact numbers.

Common to all, as to type: physicochemical
The nature of data set [1]: Stability experiment: purity after 10 days of humidity, heat or light. The following applies: for stability compared with the amorphous form: conclusion from Table 6. Here is the method: High-performance liquid chromatography (HPLC) test conditions involved in the present disclosure: the model of the liquid chromatograph was Agilent 1260; the chromatographic column was Waters XBridge C18 150*4.6 mm 3.5 μm; the detection wavelength was 234 nm; and the column temperature was 25° C.
The amorphous form of the compound of formula I prepared in Preparation Example, the crystal form A of the compound of formula I prepared in Example 1, the crystal form B of the compound of formula I prepared in Example 32, the crystal form C of the compound of formula I prepared in Example 48, the crystal form D of the compound of formula I prepared in Example 51, and the crystal form E of the compound of formula I prepared in Example 54 were placed in 75% RH, 92.5% RH, 40° C., 60° C. and light for 10 days respectively, and the X-ray powder diffraction pattern and purity of each crystal form were measured.

A short description of data set [2]: Granularity experiment (D50, D90). The following applies: for D50 / D90: granularity. As to the method: The amorphous form of the compound of formula I prepared in Preparation Example, the crystal form A of the compound of formula I prepared in Example 1, the crystal form B of the compound of formula I prepared in Example 32, the crystal form C of the compound of formula I prepared in Example 48, the crystal form D of the compound of formula I prepared in Example 51, and the crystal form E of the compound of formula I prepared in Example 54 were measured for granularity, and the specific results are shown in Table 7 below: […]

The nature of data set [3]: Fluidity test (angle of repose). The following applies: for fluidity / angle of repose (in words): crystal forms compared with amorphous form. Here is the method: The amorphous form of the compound of formula I prepared in Preparation Example, the crystal form A of the compound of formula I prepared in Example 1, the crystal form B of the compound of formula I prepared in Example 32, the crystal form C of the compound of formula I prepared in Example 48, the crystal form D of the compound of formula I prepared in Example 51, and the crystal form E of the compound of formula I prepared in Example 54 were measured for angle of repose, and the specific results are shown in Table 8 below: […]

The next data set in a line: Hygroscopicity test. The following applies: for Hygroscopicity: 75% RH and 25° C. for 24 h, by weighing; for hygroscopicity (in words): crystal forms compared with amorphous form. Here is the method:
The amorphous form of the compound of formula I prepared in Preparation Example, the crystal form A of the compound of formula I prepared in Example 1, the crystal form B of the compound of formula I prepared in Example 32, the crystal form C of the compound of formula I prepared in Example 48, the crystal form D of the compound of formula I prepared in Example 51, and the crystal form E of the compound of formula I prepared in Example 54 were placed in an environment of 75% RH and 25° C. for 24 h and then weighed to calculate the hygroscopicity, respectively.

On to `C=CC(=O)Nc1cc(N2CCN(CC)C3(CC3)C2)ccc1Nc1cc(N(C)C(=O)Nc2c(Cl)c(OC)cc(OC)c2Cl)ncn1` [Amorphous form, N-(2-((6-(3-(2,6-dichloro-3,5-dimethoxyphenyl)-1-methylureido)pyrimidin-4-yl)amino)-5-(4-ethyl-4,7-diazaspiro[2.5]octan-7-yl)phenyl)acrylamide], for which the purity was 94.67 in data set [1] (40° C. for 10 days); 94.73 in data set [1] (60° C. for 10 days); 94.93 in data set [1] (75% RH for 10 days); 94.83 in data set [1] (92.5% RH for 10 days); 95.33 in data set [1] (Day 0); 94.97 in data set [1] (Light for 10 days). For the same molecule, the “D50 relative to the crystal forms” value in data set [2] (amorphous form D50 as share of crystal forms A-E) is given as no more than 13%. The “D90 relative to the crystal forms” value in data set [2] (amorphous form D90 as share of crystal forms A-E) is listed as no more than 33%. In addition, the “granularity (in words)” value in data set [2] (compared with crystal forms A-E) was “remarkably small granularity”. Also, the D50 in data set [2] and in data set [2] (listed as amorphous form) was 2.68 μm in each case. The D90 in data set [2] and in data set [2] (listed as amorphous form) was 22.82 μm each time. The “fluidity / angle of repose (in words)” value in data set [3] was “significantly larger”. Moreover, the angle of repose in data set [3] (measurement 1) was 43.3°; in data set [3] (measurement 2) it was 42.6°; in data set [3] (measurement 3), 41.9°. In the data set “Hygroscopicity test”, this molecule registered a Hygroscopicity of 0.52%. Moreover, the “hygroscopicity (in words)” value in “Hygroscopicity test” is reported as “significantly greater”.
In the case of `C=CC(=O)Nc1cc(N2CCN(CC)C3(CC3)C2)ccc1Nc1cc(N(C)C(=O)Nc2c(Cl)c(OC)cc(OC)c2Cl)ncn1` [Crystal form A, N-(2-((6-(3-(2,6-dichloro-3,5-dimethoxyphenyl)-1-methylureido)pyrimidin-4-yl)amino)-5-(4-ethyl-4,7-diazaspiro[2.5]octan-7-yl)phenyl)acrylamide], the purity in data set [1] (40° C. for 10 days) is 99.83; in data set [1] (60° C. for 10 days), 99.81; in data set [1] (75% RH for 10 days) it was 99.85; in data set [1] (92.5% RH for 10 days), 99.83; in data set [1] (Day 0), 99.87; in data set [1] (Light for 10 days) it was 99.87. Further, the “stability compared with the amorphous form” value in data set [1] is “better stability”. For the same molecule, the D50 in data set [2] amounted to 22.37 μm. Besides, in data set [2], the D90 was 72.86 μm. In addition, the “fluidity / angle of repose (in words)” value in data set [3] is reported as “significantly better than the amorphous form in terms of fluidity”. Further, the angle of repose stood at 33.4° in data set [3] (measurement 1), 31.8° in data set [3] (measurement 2) and 33.7° in data set [3] (measurement 3). This molecule registered a Hygroscopicity in the data set “Hygroscopicity test” of 0.10%. In addition, in the data set “Hygroscopicity test”, the “hygroscopicity (in words)” value is “significantly better than the amorphous form in terms of hygroscopicity”.
As to `C=CC(=O)Nc1cc(N2CCN(CC)C3(CC3)C2)ccc1Nc1cc(N(C)C(=O)Nc2c(Cl)c(OC)cc(OC)c2Cl)ncn1` [Crystal form B, N-(2-((6-(3-(2,6-dichloro-3,5-dimethoxyphenyl)-1-methylureido)pyrimidin-4-yl)amino)-5-(4-ethyl-4,7-diazaspiro[2.5]octan-7-yl)phenyl)acrylamide], the purity in data set [1] (40° C. for 10 days) was found to be 99.69; in data set [1] (60° C. for 10 days), 99.72; in data set [1] (75% RH for 10 days), 99.75; in data set [1] (92.5% RH for 10 days), 99.73; in data set [1] (Day 0), 99.75; in data set [1] (Light for 10 days), 99.73. Further, the “stability compared with the amorphous form” value in data set [1] is listed as “better stability”. Besides, in data set [2], the D50 stood at 21.98 μm. For the same molecule, the D90 in data set [2] was 71.56 μm. Further, in data set [3], the “fluidity / angle of repose (in words)” value was “significantly better than the amorphous form in terms of fluidity”. The angle of repose in data set [3] (measurement 1) worked out at 34.6°; in data set [3] (measurement 2), 35.7°; in data set [3] (measurement 3) it was 35.2°. This molecule came in with a Hygroscopicity in the data set “Hygroscopicity test” of 0.12%. The “hygroscopicity (in words)” value in “Hygroscopicity test” is reported as “significantly better than the amorphous form in terms of hygroscopicity”.
Turning to `C=CC(=O)Nc1cc(N2CCN(CC)C3(CC3)C2)ccc1Nc1cc(N(C)C(=O)Nc2c(Cl)c(OC)cc(OC)c2Cl)ncn1` [Crystal form C, N-(2-((6-(3-(2,6-dichloro-3,5-dimethoxyphenyl)-1-methylureido)pyrimidin-4-yl)amino)-5-(4-ethyl-4,7-diazaspiro[2.5]octan-7-yl)phenyl)acrylamide], the purity is on record as 99.66 in data set [1] (40° C. for 10 days); 99.66 in data set [1] (60° C. for 10 days); 99.71 in data set [1] (75% RH for 10 days); 99.68 in data set [1] (92.5% RH for 10 days); 99.72 in data set [1] (Day 0); 99.70 in data set [1] (Light for 10 days). Also, the “stability compared with the amorphous form” value in data set [1] is “better stability”. The D50 in data set [2] is on record as 21.77 μm. The D90 in data set [2] came to 70.88 μm. For the same molecule, the “fluidity / angle of repose (in words)” value in data set [3] is given as “significantly better than the amorphous form in terms of fluidity”. Also, the angle of repose in data set [3] (measurement 1) came to 34.2°; in data set [3] (measurement 2), 35.4°; in data set [3] (measurement 3), 33.9°. Also, the Hygroscopicity in the data set “Hygroscopicity test” turned out to be 0.15%. Moreover, the “hygroscopicity (in words)” value in the data set “Hygroscopicity test” was “significantly better than the amorphous form in terms of hygroscopicity”.
As to `C=CC(=O)Nc1cc(N2CCN(CC)C3(CC3)C2)ccc1Nc1cc(N(C)C(=O)Nc2c(Cl)c(OC)cc(OC)c2Cl)ncn1` [Crystal form D, N-(2-((6-(3-(2,6-dichloro-3,5-dimethoxyphenyl)-1-methylureido)pyrimidin-4-yl)amino)-5-(4-ethyl-4,7-diazaspiro[2.5]octan-7-yl)phenyl)acrylamide], the purity in data set [1] (40° C. for 10 days) worked out at 99.52; in data set [1] (60° C. for 10 days) it was 99.49; in data set [1] (75% RH for 10 days), 99.54; in data set [1] (92.5% RH for 10 days), 99.54; in data set [1] (Day 0), 99.55; in data set [1] (Light for 10 days) it was 99.53. The “stability compared with the amorphous form” value in data set [1] is recorded as “better stability”. The D50 in data set [2] is reported as 20.98 μm. For the same molecule, the D90 in data set [2] came to 70.49 μm. Also, in data set [3], the “fluidity / angle of repose (in words)” value is listed as “significantly better than the amorphous form in terms of fluidity”. Further, the angle of repose in data set [3] (measurement 1) worked out at 35.6°; in data set [3] (measurement 2), 36.2°; in data set [3] (measurement 3) it was 35.1°. The Hygroscopicity in the data set “Hygroscopicity test” amounted to 0.16%. Besides, the “hygroscopicity (in words)” value in “Hygroscopicity test” was “significantly better than the amorphous form in terms of hygroscopicity”.
For the molecule `C=CC(=O)Nc1cc(N2CCN(CC)C3(CC3)C2)ccc1Nc1cc(N(C)C(=O)Nc2c(Cl)c(OC)cc(OC)c2Cl)ncn1` [Crystal form E, N-(2-((6-(3-(2,6-dichloro-3,5-dimethoxyphenyl)-1-methylureido)pyrimidin-4-yl)amino)-5-(4-ethyl-4,7-diazaspiro[2.5]octan-7-yl)phenyl)acrylamide], the purity is recorded as 99.53 in data set [1] (40° C. for 10 days); 99.52 in data set [1] (60° C. for 10 days); 99.56 in data set [1] (75% RH for 10 days); 99.54 in data set [1] (92.5% RH for 10 days); 99.56 in data set [1] (Day 0); 99.55 in data set [1] (Light for 10 days). The “stability compared with the amorphous form” value in data set [1] is “better stability”. In addition, the D50 in data set [2] came out at 20.98 μm. Besides, the D90 in data set [2] was 69.99 μm. In data set [3], the “fluidity / angle of repose (in words)” value was “significantly better than the amorphous form in terms of fluidity”. The angle of repose in data set [3] (measurement 1) was found to be 35.5°; in data set [3] (measurement 2), 36.1°; in data set [3] (measurement 3), 35.9°. For the same molecule, the Hygroscopicity in “Hygroscopicity test” amounted to 0.20%. For the same molecule, the “hygroscopicity (in words)” value in “Hygroscopicity test” is “significantly better than the amorphous form in terms of hygroscopicity”.
